Data reported in patent publication US12678416B2, “L-triiodothyronine (T3) for use in limiting microvascular obstruction” (UNI-PHARMA KLEON TSETIS PHARMACEUTICAL LABORATORIES S.A., priority 2019, dated 2026).
“Also recorded” adds a separate entry of the source.

Key:
[1] = system: patients after acute myocardial infarction; conditions: long-term administration of high doses; cited from earlier work
isolated rat heart = conditions: ex vivo, cited from earlier work; for myocardial injury as indicated by apoptosis: at the onset of reperfusion
STEMI patients [2] = assay: Thy-REPAIR: left ventricular ejection fraction by echocardiography; type: in vivo; conditions: early and late after the index event, T3 vs placebo
Method: FIG. 12: Left ventricular ejection fraction assessed by echocardiography at different time points in STEMI patients treated with placebo and T3
(§1) The dose administered is 0.8 μg/kg intravenously bolus starting immediately after successful opening of the culprit vessel has been established in the hemodynamic lab and followed by an infusion of 0.113 μg/kg/h intravenously for 48 hours.

STEMI patients [3] = assay: Thy-REPAIR: heart rate during hospitalization; type: in vivo; conditions: during the first 3 days, high dose T3 vs placebo
Method: (§2) The potential effect of early administration of high dose TH (acute treatment) after an index event has been also investigated in experimental models of ischemia-reperfusion (I/R) using isolated rat heart preparations. […] Thy-REPAIR explores the effects of high-dose T3 treatment intravenously starting immediately after reperfusion and continuing for 48 hours in patients with anterior or anterolateral STEMI undergoing primary PCI. This is a double-blind randomized trial. The primary end point of this study is recovery of myocardial function after 6 months of the index event as this is assessed by Cardiac Magnetic Resonance (CMR) at discharge and at 6 months after acute myocardial infarction. This study also explores the potential effects of T3 treatment on infarct size and cardiac remodeling by assessing changes in LV volumes and geometry.
as §1
Despite the possible increase in oxygen consumption, no increase in infarct size (IS) is found with T3 in contrast to the current belief (FIG. 3).

[4] = system: STEMI patients after PPCI; assay: Thy-REPAIR: ST resolution in electrocardiograms on admission and after PPCI; type: in vivo; conditions: placebo 34%, p=0.05
From the text: (§3) The invention in particular concerns L-triiodothyronine for use in the treatment as set forth in the appending claims. In the broader sense, the present invention concerns L-triiodothyronine for use in the treatment of microvascular obstruction. Treatment of MVO in this context relates to the lessening of microvascular obstruction in comparison to patients which were not supplied with T3. MVO may be determined on the basis of both Cardiac Magnetic Resonance (CMR) imaging, being performed 7-12 days following primary percutaneous coronary intervention (PPCI) and restoration of ST elevation in electrocardiogram (ECG). Infarct size and ejection fraction was measured by CMR. Infarct size was also assessed enzymatically by measuring levels of troponin in blood.
as §1
These unexpected findings concerning MVO were also supported by other measurements. Changes in ST elevation in electrocardiograms before and after PPCI measured as ST restoration (%) are closely correlated with the extent of MVO (FIG. 6).

[5] = Thy-REPAIR phase II study: T3 levels in serum during hospitalization; type: in vivo, patients
Method: as §2, §1

[6] = system: STEMI patients after PPCI; assay: Thy-REPAIR: contrast-enhanced cardiac magnetic resonance (MVO, infarct size, LV function); type: in vivo
Method: as §2, §3, §1
Actually, cardiac magnetic resonance with gadolinium represents the gold-standard method for detection of MVO in patients with STEMI. MVO can be quantified in each patient as the percentage of left ventricular (LV) myocardium that is not adequately perfused despite restoration of blood flow in the occluded large coronary artery.
The incidence of MVO was assessed using the value of 0.47% as a cut-off point for patients with large and small extent of MVO as previously described. This analysis was additionally performed and provides a strong evidence about the T3 effect on MVO. In the placebo group (n=9), a large extent of MVO was found in 56% of patients consistent with previous published reports in the literature.

[7] = system: patients with STEMI and low serum FT3 levels; conditions: oral T3 for 6 months, cited from earlier work
STEMI patients [8] = assay: Thy-REPAIR: troponin levels in blood over time; type: in vivo; conditions: T3 vs placebo groups
From the text: as §3, §1
Troponin levels in blood over time are mainly a measure of myocardial injury. According to the present invention, troponin levels are similar between T3 and placebo groups indicating a similar infarct size in accordance with CMR data. Thus, it seems that the effect of T3 on MVO is independent from infarct size. (FIG. 8).

[9] = system: reperfused STEMI patients; conditions: high-dose intracoronary, cohort of 247 reperfused STEMI patients; cited from earlier work

N[C@H](Cc1cc(I)c(Oc2cc(I)c(O)c(I)c2)c(I)c1)C(=O)O [D-thyroxine]
mortality [1]: increased

N[C@@H](Cc1cc(I)c(Oc2ccc(O)c(I)c2)c(I)c1)C(=O)O [T3, L-triiodothyronine]
myocardial injury as indicated by apoptosis (isolated rat heart): less | post-ischemic recovery of function (isolated rat heart; high dose at the onset of reperfusion): enhanced | LV ejection fraction by echocardiography (STEMI patients [2]): improvement | heart rate (STEMI patients [3]): non-significant increase | mean ST resolution after PPCI [4]: 54% | T3 levels in serum relative to normal range ([5]; at discharge (7th day)): return to normal | T3 levels in serum relative to normal range ([5]; for 72 hours): far above normal range | concentration at 24 h ([5]; human, serum, at 24 hours, 0.8 μg/kg iv bolus then 0.113 μg/kg/h iv for 48 hours, placebo 0.79 (0.06), p<0.01): 5.5 ng/mL | concentration at 48 h ([5]; human, serum, at 48 hours, 0.8 μg/kg iv bolus then 0.113 μg/kg/h iv for 48 hours, placebo 0.76 (0.06), p<0.01): 4.5 ng/mL | extent of mean microvascular obstruction ([6]; CMR at discharge (7-12 days after the event), T3 vs placebo): less | infarct size (IS) by CMR ([6]; T3 vs placebo, at discharge): no increase; also recorded: similar | cardiac function by CMR ([6]; at 6 months, T3 vs placebo): improvement | cardiac function ([6]; at discharge and at 6 months): improved | myocardial function (EF %, LVEDVi and end-systolic volumes by CMR) ([6]; at discharge, T3 vs placebo): improved | recovery of function (ejection fraction at 6 months) versus myocardial injury (infarct size by CMR) ([6]; correlation in T3 group): independent | patients with a large extent of MVO ([6]; cut-off 0.47%, T3 group n=12, placebo (n=9) 56%, p=0.05): 25% | regional cardiac dysfunction ([7]; commenced 72 h after onset of STEMI, max 15 μg/m^2/day, 37 patients): effective in reducing | safety of T3 replacement therapy ([7]; commenced 72 h after onset of STEMI): safe | left ventricular ejection fraction and myocardial infarct size by cardiac MRI [7]: did not show any benefit | troponin levels in blood over time (STEMI patients [8]): similar

N[C@@H](Cc1cc(I)c(Oc2cc(I)c(O)c(I)c2)c(I)c1)C(=O)O [T4, L-thyroxine]
myocardial injury as indicated by apoptosis (isolated rat heart): no effect

Nc1ncnc2c1ncn2[C@@H]1O[C@H](CO)[C@@H](O)[C@H]1O [adenosine]
MVO and MI size [9]: failed to reduce
